Values belong to the compound of their own block, whether it stands above or below them. Active and inactive are the calls of the source.
Key:
[1] = biological target: Ephrin type-A receptor 4 (Mus musculus, UniProt Q03137); test: inhibitors of EphA4 binding to KYL peptide, primary screen, biochemical, colorimetric, mouse EphA4 (AID 689); assay type: functional
[2] = tested on: Vero; test: host cell cytotoxicity of antiviral hits, dose response, cytotoxicity control for West Nile virus antiviral project, secondary assay (AID 1650); assay type: functional; conditions: Chlorocebus sabaeus
[3] = biological target: Neuropeptide Y receptor type 1 (Homo sapiens, UniProt P25929); assay type: functional;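 note: HEK293 cells with a CNG channel challenged with NPY then isoproterenol; potency as antagonist that reverses NPY suppression of cAMP signal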
[4] = biological target: Neuropeptide Y receptor type 2 (Homo sapiens, UniProt P49146); assay type: functional, cell-based;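 note: HEK293 cells expressing the receptor and a CNG channel; stimulus was NPY near EC95 followed by isoproterenol to raise cAMP; antagonist potency measured as restoring cAMP signal that NPY suppresses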
[5] = biological target: Disintegrin and metalloproteinase domain-containing protein 17 (Homo sapiens, UniProt P78536); test: exosite inhibitors of ADAM17, dose response, biochemical (AID 743260)
[6] = ADAM10 protease inhibitors, dose response, selectivity assay for ADAM17 exosite inhibitor project, biochemical, FRET peptide substrate, recombinant human ADAM10 (AID 743259);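 note: ADAM10 enzyme cleaving a FRET peptide substrate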

Sequence of Ephrin type-A receptor 4 (Q03137 whole entry): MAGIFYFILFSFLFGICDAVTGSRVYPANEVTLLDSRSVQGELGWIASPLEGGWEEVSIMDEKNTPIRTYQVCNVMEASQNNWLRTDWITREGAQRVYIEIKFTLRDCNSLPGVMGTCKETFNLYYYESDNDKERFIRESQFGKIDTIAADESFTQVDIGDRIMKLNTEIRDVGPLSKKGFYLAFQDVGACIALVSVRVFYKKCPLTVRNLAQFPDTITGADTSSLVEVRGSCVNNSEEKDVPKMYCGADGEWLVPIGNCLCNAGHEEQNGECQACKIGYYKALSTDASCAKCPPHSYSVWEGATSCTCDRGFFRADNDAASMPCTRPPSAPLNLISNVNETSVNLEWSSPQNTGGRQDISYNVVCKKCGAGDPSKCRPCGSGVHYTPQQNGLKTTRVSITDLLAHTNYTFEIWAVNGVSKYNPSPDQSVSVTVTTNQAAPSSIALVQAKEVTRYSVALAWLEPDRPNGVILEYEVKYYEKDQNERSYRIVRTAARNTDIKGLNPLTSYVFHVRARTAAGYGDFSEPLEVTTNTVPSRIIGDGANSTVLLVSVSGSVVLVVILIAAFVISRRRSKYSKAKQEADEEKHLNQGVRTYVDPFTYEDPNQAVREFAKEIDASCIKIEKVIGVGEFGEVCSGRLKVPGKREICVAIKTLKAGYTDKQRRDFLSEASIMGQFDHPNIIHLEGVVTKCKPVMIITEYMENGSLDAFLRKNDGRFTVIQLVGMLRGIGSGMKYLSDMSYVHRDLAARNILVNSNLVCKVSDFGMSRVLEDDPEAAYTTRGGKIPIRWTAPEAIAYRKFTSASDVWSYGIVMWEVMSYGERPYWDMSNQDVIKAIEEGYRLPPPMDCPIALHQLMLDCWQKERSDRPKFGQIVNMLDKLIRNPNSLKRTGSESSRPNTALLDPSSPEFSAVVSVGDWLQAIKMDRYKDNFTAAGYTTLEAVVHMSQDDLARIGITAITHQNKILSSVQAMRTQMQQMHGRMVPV
Sequence of Neuropeptide Y receptor type 2 (P49146 whole entry, the tested form may be a part): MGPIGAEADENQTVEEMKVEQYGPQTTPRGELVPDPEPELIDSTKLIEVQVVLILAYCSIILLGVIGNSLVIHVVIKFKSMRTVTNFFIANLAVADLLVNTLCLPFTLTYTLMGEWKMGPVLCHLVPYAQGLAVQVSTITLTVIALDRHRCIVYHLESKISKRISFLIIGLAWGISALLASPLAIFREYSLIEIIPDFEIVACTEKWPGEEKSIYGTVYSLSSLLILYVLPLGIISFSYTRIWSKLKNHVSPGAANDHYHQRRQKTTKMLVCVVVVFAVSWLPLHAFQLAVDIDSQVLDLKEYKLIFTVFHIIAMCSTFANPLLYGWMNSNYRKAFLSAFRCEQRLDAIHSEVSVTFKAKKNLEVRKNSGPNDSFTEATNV
Sequence of Neuropeptide Y receptor type 1 (P25929 whole entry): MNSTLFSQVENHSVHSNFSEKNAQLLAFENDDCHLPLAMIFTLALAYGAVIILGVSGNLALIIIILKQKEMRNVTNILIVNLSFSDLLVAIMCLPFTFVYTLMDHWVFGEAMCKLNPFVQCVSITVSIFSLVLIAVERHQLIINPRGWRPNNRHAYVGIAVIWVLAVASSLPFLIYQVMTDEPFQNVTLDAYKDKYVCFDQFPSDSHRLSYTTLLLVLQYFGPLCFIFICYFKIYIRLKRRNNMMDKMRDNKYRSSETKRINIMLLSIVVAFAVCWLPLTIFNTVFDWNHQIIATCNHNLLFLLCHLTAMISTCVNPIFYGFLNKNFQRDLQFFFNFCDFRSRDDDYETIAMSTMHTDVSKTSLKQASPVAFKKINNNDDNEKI
Sequence of Disintegrin and metalloproteinase domain-containing protein 17 (P78536 whole entry, the tested form may be a part): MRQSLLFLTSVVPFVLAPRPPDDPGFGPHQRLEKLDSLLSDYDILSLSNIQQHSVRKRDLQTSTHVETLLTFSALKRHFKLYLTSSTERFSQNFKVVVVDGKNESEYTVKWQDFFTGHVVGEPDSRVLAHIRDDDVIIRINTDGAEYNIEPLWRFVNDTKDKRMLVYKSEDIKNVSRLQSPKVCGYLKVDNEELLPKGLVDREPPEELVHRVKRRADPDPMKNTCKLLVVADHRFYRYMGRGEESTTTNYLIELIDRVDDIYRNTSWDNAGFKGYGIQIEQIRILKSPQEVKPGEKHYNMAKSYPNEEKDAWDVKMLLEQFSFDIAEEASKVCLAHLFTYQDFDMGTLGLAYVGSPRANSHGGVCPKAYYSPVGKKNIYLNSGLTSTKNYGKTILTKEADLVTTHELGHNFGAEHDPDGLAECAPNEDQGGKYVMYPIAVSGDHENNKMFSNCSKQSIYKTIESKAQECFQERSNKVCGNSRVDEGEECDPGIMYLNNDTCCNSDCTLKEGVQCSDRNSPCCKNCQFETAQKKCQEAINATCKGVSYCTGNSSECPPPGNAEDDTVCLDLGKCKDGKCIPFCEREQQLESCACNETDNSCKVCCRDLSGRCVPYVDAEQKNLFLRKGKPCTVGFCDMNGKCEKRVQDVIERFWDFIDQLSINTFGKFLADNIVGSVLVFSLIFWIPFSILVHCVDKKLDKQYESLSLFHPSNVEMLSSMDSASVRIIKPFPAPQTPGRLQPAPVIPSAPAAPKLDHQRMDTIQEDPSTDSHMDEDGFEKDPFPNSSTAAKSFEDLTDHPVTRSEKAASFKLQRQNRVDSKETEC

IC50 [1]: 3.31 µM (active)
Structure (SMILES): CC(C)C1Cc2c(C#N)c(N)sc(=S)c2CO1 (configuration not stated)

Structure (SMILES): COC(=O)C1=C(C(=O)OC)SC(=C2C(=S)C(C)(C)N(C(=O)CC(C)C)c3ccccc32)S1
CC50 [2]: 49.5 µM (active)

IC50 [3]: 5.14 µM (active)
IC50 [4]: 4.25 µM (active)
Structure (SMILES): COc1ccc(-c2noc(COc3ccc(Cl)c(C)c3)n2)cc1

IC50 [1]: 19.7 µM (active)
IC50 [5]: > 69.5 µM (inactive)
Structure (SMILES): CCOC(=O)c1cc(OC(=O)c2ccccc2OC)n(-c2ccccc2)n1
IC50 [6]: > 69.5 µM (inactive)
